Structures can show the parent of a compound that is named as a salt.
Experiments:
[1] = tested on: acetylcholine levels in ventral hippocampus of male Wistar rats; assay: Acetylcholine modulation in ventral hippocampus (microdialysis), test compound alone; format: in vivo, rat
Description: Male Wistar rats (240-300 g body weight) were stereotaxically implanted with a microdialysis guide cannula in ventral hippocampus (AP: −5.2 mm, ML: +5.0 mm, DV: −3.8 mm) under isoflurane anesthesia. […] The rats were allowed to recover individually for four-five days in a round bottom Plexiglas bowl with free access to feed and water.
One day prior to the microdialysis experiment, rats were connected to a dual quartz lined two-channel liquid swivel (Instech, UK) on a counter balance lever arm, which allowed unrestricted movements of the animal. […] On the day of experiment, perfusion rate was changed to 1.2 μL/min and stabilization period of atleast 2 hours was maintained. […] Dialysate samples were collected for additional period of 6 h using CMA/170 refrigerated fraction collector.
All microdialysis data were plotted as percent change from mean dialysate basal concentrations with 100% defined as the average of five predose values. The AUC was calculated by trapezoidal rule using WinNonlin® (5.0.1 version, Pharsight Corp. CA). The statistical significance between the mean AUC values of treatment group with vehicle was calculated using Dunnett's multiple comparison test. For each treatment group, the percent increase in acetylcholine levels was compared to the vehicle group using two-way analysis of variance (time and treatment), followed by Bonferroni post test. […]

[2] = Rodent pharmacokinetic study for assessment of drug interaction; settings: compound 1 3 mg/kg, p.o., donepezil 1 mg/kg, s.c.; male Wistar rats
Description: Male Wistar rats (260±50 grams) were used as experimental animals. Animals were housed individually in polypropylene cages and acclimatized for three days prior to study.
Blood was collected through retro orbital plexus under isoflurane anesthesia. Collected blood was transferred into a pre-labeled eppendorf tube containing 10 μL of sodium heparin as an anticoagulant. Blood samples were collected at following time points: 0.33, 0.66, 1, 1.5, 2, 4, 6, 8 and 24 hours post dose. Blood was centrifuged at 4000 rpm for 10 minutes. Plasma was separated and stored frozen at −80 ° C. until analysis. […] The test compounds were quantified in the calibration range around 0.05-100 ng/mL in plasma. Study samples were analyzed using calibration samples in the batch and quality control samples spread across the batch.
Pharmacokinetic parameters Cmax, Tmax and AUClast were calculated by non-compartmental model using Phoenix WinNonlin 6.4.0 version Software package.

[3] = target: human recombinant 5-HT2A receptor (Homo sapiens (Human), UniProt P28223); assay: Determination of Ki value at 5-HT2A receptor (radioligand binding, [3H]-Ketanserine); settings: [3H]-Ketanserine 1.75 nM, average of three independent experiments
Description: The reaction was terminated by rapid vacuum filtration onto the glass fiber filters.

[4] = tested on: acetylcholine levels in ventral hippocampus of male Wistar rats; assay: Acetylcholine modulation in ventral hippocampus (microdialysis), combination treatment; format: in vivo, rat; settings: s.c. alone
Description: However, there were minor modifications in the microdialysis experiment.
After surgical recovery of 4-5 days, male Wistar rats were connected to dual quartz lined two-channel liquid swivel (Instech, UK) on a counter balance lever arm, which allowed unrestricted movements of the animal. Sixteen hours before start of study, a pre-equilibrated microdialysis probe (4 mm dialysis membrane) was inserted into the ventral hippocampus through the guide cannula. On the day of study, the probe was perfused with aCSF at a flow rate of 1.5 μL/min and a stabilization period of 2 h was maintained. […] Dialysates were stored below −50° C. prior to analysis.
All microdialysis data for acetylcholine was plotted as percent change from mean dialysate basal concentrations with 100% defined as the average of five pre-dose values. […] Statistical significance was considered at a p value less than 0.05. Incorrect probe placement was considered as criteria to reject the data from animal.

[5] = tested on: theta power in dorsal hippocampus of anesthetized male Wistar rats; assay: Evoked theta modulation in dorsal hippocampus of anesthetized male Wistar rats; format: in vivo, rat; settings: donepezil 0.3 mg/kg, i.v. alone
Description: Additionally one electrode was implanted into the cerebellum which served as a reference. Hippocampal θ rhythm was evoked via a 6-s electrical stimulation train (20-160 μA, 0.3-ms pulse duration, 250 Hz) delivered to the NPO at a rate of 0.01 trains/s with a Grass S88 stimulator and PSIU6 stimulus isolation unit (Grass Medical Instruments, Quincy, Mass.). EEG was recorded at a rate of 1000 Hz using Ponemah (Version 5.2) software and stored for off-line analysis using NeuroScore™ (Version 3.0). Baseline amplitude level was achieved by using the current required to elicit θ rhythm to 50% of the maximal amplitude under control conditions.
Power in the θ rhythm frequency in the stimulation period during the 30 min baseline period was calculated and the percent changes in these measures post treatment were calculated. […] Statistical significance was considered at a p value less than 0.05.

COc1ccc2c(c1)c(CN1CCN(C)CC1)cn2S(=O)(=O)c1ccccc1Br [Compound 1, 1-[(2-Bromophenyl)sulfonyl]-5-methoxy-3-[(4-methyl-1-piperazinyl)methyl]-1H-indole dimesylate monohydrate]
increase in hippocampal acetylcholine levels ([1]; 3 mg/kg, p.o., ventral hippocampus, male Wistar rats): about 172%
Area under the curve value of acetylcholine change vs vehicle treatment ([1]; compound 1 p.o., FIG. 2): significantly higher
difference in plasma exposures administered alone or in combination [2]: No significant difference

COc1ccc2c(c1)c(CN1CCN(C)CC1)cn2S(=O)(=O)c1ccc(F)cc1 [Compound 2, 1-[(4-Fluorophenyl)sulfonyl]-5-methoxy-3-[(4-methyl-1-piperazinyl)methyl]-1H-indole dihydrochloride]
Ki [3]: > 10 µM

COc1cc2c(cc1OC)C(=O)C(CC1CCN(Cc3ccccc3)CC1)C2 (stereo not shown) [Donepezil]
maximum hippocampal acetylcholine levels ([4]; donepezil 1 mg/kg): 703±134 % of basal levels
hippocampal theta power [5]: moderate increase

CCN(C)C(=O)Oc1cccc([C@H](C)N(C)C)c1 [rivastigmine, Rivastigmine]
increase in hippocampal acetylcholine level ([4]; rivastigmine 0.5 mg/kg): about 3 fold

— patent US11458135B2, “Combination of pure 5-HT6 receptor antagonists with acetylcholinesterase inhibitors” (priority 2016, dated 2022)
